Measurements from publication PMC6452685, “Lysyl-tRNA synthetase as a drug target in malaria and cryptosporidiosis” (Proceedings of the National Academy of Sciences of the …, 2019).

Tests used:
[1] = In vivo pharmacokinetics in mouse
Excerpt: 5. In vi vo pharmacokinetic and efficacy studies
5.1 In viv o ph armacokinetics (Dundee)
The l ev el of each comp ound i n mouse bl ood was determi ned by UPLC -MS/MS as previously re port e d (18). Pharmacokinetic parameters were derived from the blood c oncent ration time curve usi ng PKsol uti ons software v 2.0 (Summi t Research Servi ces, USA). […]

CYP2C9 = molecular target: T1, CYP2C9 (Homo sapiens, UniProt P11712); test: Fluorescence-based CYP inhibition, CYP2C9; format: in vitro ADME
T1 construct: purchased Cypex, Dundee, UK; host or cells: bacterial membranes (bactosomes)
Description: 4.7 F lu or e s ce nce-based CYP I nhibition usin g recombinantly expressed CYP b actosomes Fl uorogeni c C YP i nhi bi t i on s t udi es w ere c ondu ct ed at 37 °C i n 96-well, flat-bot t om, cl ear p ol y s t y rene pl at es. I ncubat i on mi xt ures cont ai ni ng Eas y C YP bact os omes (1000 pmol /ml , 10 mg /ml C y pex TM, Dundee, UK), fl uorogeni c substrate (Cypex TM) and 50 mM potas s i um phosphat e buffer (p H 7. 4) w er e prepared at t he fol l ow i ng fi nal concent rat i ons : C YP1A2, 5 pmol /ml + 35 µ M et hox y res orufi n (ER) ; CYP2C9, 10 pm ol/ml + 30 µM 7-methoxy-4-(tri fl uo romethy l )-coumari n (MFC ); C YP 2C 19, 5 pm ol /ml + 25 µM 3-cy ano-7-eth oxycoumarin (CEC); C YP 2D 6, 10 pmol /ml + 6 µM 7-meth oxy-4-(ami nomethy l )- coumari n (MAMC ); C YP 3A4, 10 pmol /ml + 1 µM diethoxyfluorescein (DEF) and 10 pmol /ml + 15 µM 7-benz y l ox y qui nol i ne (BQ ). […] 0125 ( 1A2 and 2C 9 onl y ) o r 0. 025 mg /ml (al l ot her i s oforms ). […] Positive control inhibitor, miconazole, was prepared as a 500 µM s olution in DMSO and similarly diluted.
For eac h i sofo rm, 2 20 µl of i ncubati on mi x was added to each wel l of a 96-well, flat-bot t om, cl ear pol y s t y rene pl at e. Al i quot s (5 µl) of each compound 5 conce ntrati on was then mi x ed wi th 220 µl of the incubation mix and pre-incubated at 37 °C for 5 min (final test compound concentration range: […]

44 receptor/enzyme panel = test: Preliminary selectivity study in a 44 receptor/enzyme panel; conditions: at a concentration of 10 μM
[2] = molecular target: human ether-à-go-go related gene (hERG) K+ channel (Homo sapiens, UniProt Q12809); test: hERG K+ channel assay (IonWorks patch clamp); format: cell-based
P. falciparum = test: In vivo antimalarial efficacy in P. falciparum-infected SCID mice engrafted with human erythrocytes; conditions: SCID mouse, orally once a day for 4 d
Description: The mi ce were i ntrav enous l y i nfected with 2×107 P. fa l ci p a rum Pf3D700 87/ N9-infected erythrocytes (day 0). On day 3 after infection, mice (n=2) were rand oml y al l ocated to treatments that were admi nis tered once a day for 4 cons ecuti v e day s by oral g av ag e at 10 ml/k g.
The compo und c onc entrati on v ers us ti me data were anal yzed by non-compartmental anal ysi s (NCA) usi ng Phoeni xR Ve rsi on 6.3 (Pha rsi ght Corporati on, M ountai n Vi ew, CA, USA).
Femal e i mmunodefi ci ent NOD-sc i d I L-2Rγnull mi ce (NSG) (Charl es Ri v er, France) of 25-28 g r b ody w ei g ht w ere hou s ed i n The A rt of D i s cov ery ani mal faci li t y at BIC

human ether-à-go-go related gene (hERG) K+ channel, sequence (Q12809 whole entry): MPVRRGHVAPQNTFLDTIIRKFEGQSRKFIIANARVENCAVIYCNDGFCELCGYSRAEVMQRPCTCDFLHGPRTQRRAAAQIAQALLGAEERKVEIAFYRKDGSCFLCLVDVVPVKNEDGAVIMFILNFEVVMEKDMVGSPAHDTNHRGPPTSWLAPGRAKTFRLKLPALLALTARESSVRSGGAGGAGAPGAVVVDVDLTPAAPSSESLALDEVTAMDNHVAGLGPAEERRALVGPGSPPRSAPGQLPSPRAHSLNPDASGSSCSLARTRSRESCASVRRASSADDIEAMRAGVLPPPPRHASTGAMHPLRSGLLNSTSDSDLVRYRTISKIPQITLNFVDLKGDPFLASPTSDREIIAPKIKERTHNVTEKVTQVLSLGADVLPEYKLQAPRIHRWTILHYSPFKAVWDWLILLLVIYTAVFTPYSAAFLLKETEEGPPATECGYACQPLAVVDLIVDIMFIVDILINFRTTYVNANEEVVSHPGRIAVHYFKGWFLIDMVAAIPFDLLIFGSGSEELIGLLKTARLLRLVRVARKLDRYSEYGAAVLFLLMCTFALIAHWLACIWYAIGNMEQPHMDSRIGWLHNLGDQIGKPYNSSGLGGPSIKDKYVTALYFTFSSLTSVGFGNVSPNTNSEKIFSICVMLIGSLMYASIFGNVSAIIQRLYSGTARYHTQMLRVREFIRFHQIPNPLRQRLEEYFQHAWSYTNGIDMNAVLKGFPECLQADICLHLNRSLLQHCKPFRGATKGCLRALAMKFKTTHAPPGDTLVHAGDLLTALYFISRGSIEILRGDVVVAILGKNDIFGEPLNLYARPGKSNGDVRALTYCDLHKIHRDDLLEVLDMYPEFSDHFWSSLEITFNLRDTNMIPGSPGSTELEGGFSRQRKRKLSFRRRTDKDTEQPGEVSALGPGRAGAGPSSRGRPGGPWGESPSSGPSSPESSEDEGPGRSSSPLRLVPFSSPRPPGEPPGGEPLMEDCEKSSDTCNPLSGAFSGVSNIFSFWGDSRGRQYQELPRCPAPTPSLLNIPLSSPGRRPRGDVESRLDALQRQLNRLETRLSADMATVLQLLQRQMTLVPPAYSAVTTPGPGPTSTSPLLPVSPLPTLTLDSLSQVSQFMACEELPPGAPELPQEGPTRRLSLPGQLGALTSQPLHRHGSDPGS
T1 sequence (P11712 whole entry): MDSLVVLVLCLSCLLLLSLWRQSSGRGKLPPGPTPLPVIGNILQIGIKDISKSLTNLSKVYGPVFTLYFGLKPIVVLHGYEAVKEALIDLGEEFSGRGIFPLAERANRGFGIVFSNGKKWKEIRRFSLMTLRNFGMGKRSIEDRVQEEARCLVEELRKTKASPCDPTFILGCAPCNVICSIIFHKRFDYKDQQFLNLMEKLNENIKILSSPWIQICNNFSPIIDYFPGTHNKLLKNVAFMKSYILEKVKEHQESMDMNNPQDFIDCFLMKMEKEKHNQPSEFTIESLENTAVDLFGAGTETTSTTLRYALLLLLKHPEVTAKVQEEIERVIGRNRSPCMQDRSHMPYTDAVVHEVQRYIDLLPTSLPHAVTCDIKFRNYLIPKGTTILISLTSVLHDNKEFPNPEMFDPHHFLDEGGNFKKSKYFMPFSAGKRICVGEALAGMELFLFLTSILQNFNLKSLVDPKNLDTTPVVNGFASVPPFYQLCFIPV

O=C(NCC1(O)CCC(F)(F)CC1)c1cc(=O)c2cc(F)ccc2o1 [Compound 5]
compound present in mouse stools ([1]; after oral dosing): 17 % of oral dose
AUC(0-t) ([1]; female, BALB/c, whole blood, po, orally, 10 mg/kg, read-out: Mouse PK orally AUC0–1440): 21700 to 50000 ng·h/mL
Cmax ([1]; female, BALB/c, whole blood, po, orally, 10 mg/kg, read-out: Mouse PK orally Cmax): 5400 ng/mL
bioavailability ([1]; female, BALB/c, whole blood, po, orally, 10 mg/kg, read-out: Mouse PK orally F% (oral bioavailability)): 100%
Tmax ([1]; female, BALB/c, whole blood, po, orally, 10 mg/kg, read-out: Mouse PK orally Tmax): 2 h
AUC ([1]; female, Balb/c, whole blood, iv, intravenously, 3 mg/kg, read-out: Mouse PK intravenously AUC (converted)): 14800 ng·h/mL
half-life ([1]; female, Balb/c, whole blood, iv, intravenously, 3 mg/kg, read-out: Mouse PK intravenously T1/2 (converted)): 2.5 h
Vd ([1]; female, Balb/c, whole blood, iv, intravenously, 3 mg/kg, read-out: Mouse PK intravenously Vdss): 1 L/kg
Mouse PK intravenously Clb ([1]; intravenously, 3 mg/kg): 3.4 mL⋅min^−1⋅kg^−1
Mouse PK orally F% (oral bioavailability) ([1]; orally, 10 mg/kg): completely bioavailable
IC50 (CYP2C9): > 10 µM
activity in 44 receptor/enzyme panel (44 receptor/enzyme panel): no activity
EC50 [2]: > 100 µM
AUCED90, estimated daily exposure in blood reducing parasitemia by 90% at day 5 (P. falciparum): 11,000 ng⋅h⋅ml^−1⋅d^−1
ED90, daily oral dose reducing parasitemia by 90% at day 5 (P. falciparum): 1.5 mg⋅kg^−1
